Data from patent publication US20260210939A1, “MODIFIED OLFACTORY RECEPTORS” (GIVAUDAN SA, priority 2022, published 2026).
pEC50: −log10 of the molar value. Like-named read-outs stand apart in the source and are kept apart here. Blank lines part the entries; values can stand above or below the compound they belong to.

Tests used:
[1] = target: human class II OR identified in the library screening (Homo sapiens, UniProt Q8NGX5)
Target sequence in this assay (Q8NGX5 whole entry, the tested form may be a part): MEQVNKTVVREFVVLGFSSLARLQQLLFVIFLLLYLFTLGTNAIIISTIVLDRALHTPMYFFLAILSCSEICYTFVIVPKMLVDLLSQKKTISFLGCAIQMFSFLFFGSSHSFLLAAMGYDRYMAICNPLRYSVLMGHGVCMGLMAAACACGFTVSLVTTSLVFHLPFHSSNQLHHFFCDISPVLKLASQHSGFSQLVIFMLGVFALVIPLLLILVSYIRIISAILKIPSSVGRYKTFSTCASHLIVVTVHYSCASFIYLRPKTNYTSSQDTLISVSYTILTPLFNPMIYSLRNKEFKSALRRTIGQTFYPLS
Method: (§1) Selected ligand—OR pairs were then tested in a confirmatory test with a dose response analysis.
(§2) For selected receptors, the wild-type sequence was synthesized and cloned into pcDNA3.1 (+). Dose-response analysis with the cognate ligand was then performed for both the wild-type and the modified sequence.

[2] = target: human class II OR identified in the library screening (Homo sapiens, UniProt Q9Y4A9)
Target sequence in this assay (Q9Y4A9 whole entry, the tested form may be a part): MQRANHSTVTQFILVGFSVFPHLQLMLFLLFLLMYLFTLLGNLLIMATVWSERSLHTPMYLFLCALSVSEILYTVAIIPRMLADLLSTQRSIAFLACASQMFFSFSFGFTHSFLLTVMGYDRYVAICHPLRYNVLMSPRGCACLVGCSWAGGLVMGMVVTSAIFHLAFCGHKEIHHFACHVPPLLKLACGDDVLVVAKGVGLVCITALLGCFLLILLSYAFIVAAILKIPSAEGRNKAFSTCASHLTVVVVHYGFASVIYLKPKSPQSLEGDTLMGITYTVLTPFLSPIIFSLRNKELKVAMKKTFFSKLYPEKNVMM
Method: as §1, §2

[3] = target: human class II OR identified in the library screening (Homo sapiens, UniProt Q8NGX5); test: Confirmatory dose-response analysis of library-hit OR with cognate ligand, wild-type vs C-terminal domain SEQ ID NO: 221 (Table 17); settings: read-out: Potency, EC50 changed C-term; OR10K1, modified C-terminus SEQ ID NO: 221 (SEQ ID NO: 687);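 also: Wild-type receptor sequences expressed from the pcDNA3.1(+) vector and compared with the C-terminally modified receptors in dose-response tests using each receptor's cognate ligand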
Target sequence in this assay (Q8NGX5 1-292): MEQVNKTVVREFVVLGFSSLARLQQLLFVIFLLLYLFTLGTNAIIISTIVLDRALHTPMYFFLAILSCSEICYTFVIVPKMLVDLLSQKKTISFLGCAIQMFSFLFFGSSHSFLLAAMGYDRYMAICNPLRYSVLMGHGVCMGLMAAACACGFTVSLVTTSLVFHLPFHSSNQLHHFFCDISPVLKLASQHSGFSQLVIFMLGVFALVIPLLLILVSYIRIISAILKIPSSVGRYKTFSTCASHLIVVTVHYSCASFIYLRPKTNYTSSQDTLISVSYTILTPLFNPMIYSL
Method: as §1, §2

[4] = system: human class II OR identified in the library screening; test: as above; settings: for Fold improvement efficacy: maximal induction; for Detection threshold; Fold improvement efficacy: under detection threshold; for pEC50: read-out: Potency, EC50 changed C-term
Method: as §1, §2

[5] = target: human class II OR identified in the library screening (Homo sapiens, UniProt Q9Y4A9); test: as above; settings: read-out: Potency, EC50 changed C-term; OR10H1, modified C-terminus SEQ ID NO: 221 (SEQ ID NO: 679)
Target sequence in this assay (Q9Y4A9 1-297): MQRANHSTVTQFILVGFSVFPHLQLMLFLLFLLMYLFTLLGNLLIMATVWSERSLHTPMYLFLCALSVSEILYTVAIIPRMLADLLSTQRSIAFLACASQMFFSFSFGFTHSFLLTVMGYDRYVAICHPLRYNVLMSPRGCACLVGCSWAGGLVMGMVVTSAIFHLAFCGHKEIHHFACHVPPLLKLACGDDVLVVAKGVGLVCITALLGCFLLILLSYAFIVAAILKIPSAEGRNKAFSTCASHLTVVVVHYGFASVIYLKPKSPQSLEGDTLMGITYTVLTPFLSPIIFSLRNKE
Method: as §1, §2

[6] = target: human class II OR identified in the library screening (Homo sapiens, UniProt Q8NG85)
Target sequence in this assay (Q8NG85 whole entry, the tested form may be a part): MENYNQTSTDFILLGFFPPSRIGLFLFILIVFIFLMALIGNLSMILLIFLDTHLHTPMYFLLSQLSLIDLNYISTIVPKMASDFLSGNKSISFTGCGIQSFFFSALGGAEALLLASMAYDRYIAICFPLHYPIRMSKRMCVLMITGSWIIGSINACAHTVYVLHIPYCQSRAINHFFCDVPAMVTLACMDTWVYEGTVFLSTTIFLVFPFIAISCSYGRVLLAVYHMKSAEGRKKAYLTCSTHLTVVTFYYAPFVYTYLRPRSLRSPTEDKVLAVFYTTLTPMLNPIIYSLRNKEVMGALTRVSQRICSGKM
Method: as §1, §2

[7] = target: human class II OR identified in the library screening (Homo sapiens, UniProt Q8NG80)
Target sequence in this assay (Q8NG80 whole entry, the tested form may be a part): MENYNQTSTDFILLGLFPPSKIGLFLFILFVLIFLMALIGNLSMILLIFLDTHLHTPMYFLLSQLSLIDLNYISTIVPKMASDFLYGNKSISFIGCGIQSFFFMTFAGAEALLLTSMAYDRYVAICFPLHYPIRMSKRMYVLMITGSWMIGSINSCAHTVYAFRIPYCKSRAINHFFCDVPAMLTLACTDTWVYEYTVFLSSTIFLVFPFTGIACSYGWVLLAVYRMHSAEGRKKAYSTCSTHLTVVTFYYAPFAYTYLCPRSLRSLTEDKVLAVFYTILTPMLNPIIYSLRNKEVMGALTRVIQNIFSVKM
Method: as §1, §2

[8] = target: human class II OR identified in the library screening (Homo sapiens, UniProt Q8NG85); test: Confirmatory dose-response analysis of library-hit OR with cognate ligand, wild-type vs C-terminal domain SEQ ID NO: 221 (Table 17); settings: read-out: Potency, EC50 changed C-term; OR2L3, modified C-terminus SEQ ID NO: 221 (SEQ ID NO: 412);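 also: Wild-type receptor sequences expressed from the pcDNA3.1(+) vector and compared with the C-terminally modified receptors in dose-response tests using each receptor's cognate ligand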
Target sequence in this assay (Q8NG85 1-296): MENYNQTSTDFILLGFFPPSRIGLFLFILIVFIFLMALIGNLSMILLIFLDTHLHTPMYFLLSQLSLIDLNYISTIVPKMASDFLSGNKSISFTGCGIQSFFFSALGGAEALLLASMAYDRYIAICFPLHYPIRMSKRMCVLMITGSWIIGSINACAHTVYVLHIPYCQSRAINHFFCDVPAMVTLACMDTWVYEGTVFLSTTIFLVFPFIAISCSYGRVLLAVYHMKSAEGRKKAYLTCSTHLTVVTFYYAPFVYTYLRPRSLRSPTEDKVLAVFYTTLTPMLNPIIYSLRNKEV
Method: as §1, §2

[9] = target: human class II OR identified in the library screening (Homo sapiens, UniProt Q8NG80); test: as above; settings: read-out: Potency, EC50 changed C-term; OR2L5, modified C-terminus SEQ ID NO: 221 (SEQ ID NO: 413)
Target sequence in this assay (Q8NG80 1-296): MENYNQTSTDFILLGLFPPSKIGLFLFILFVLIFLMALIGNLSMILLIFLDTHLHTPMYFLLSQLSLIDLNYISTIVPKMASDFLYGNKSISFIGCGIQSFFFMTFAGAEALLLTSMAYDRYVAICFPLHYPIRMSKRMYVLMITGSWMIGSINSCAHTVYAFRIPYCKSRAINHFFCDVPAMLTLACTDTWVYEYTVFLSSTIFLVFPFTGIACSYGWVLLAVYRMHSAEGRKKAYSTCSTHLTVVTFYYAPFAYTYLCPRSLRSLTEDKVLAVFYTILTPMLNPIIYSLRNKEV
Method: as §1, §2

[10] = target: human class II OR identified in the library screening (Homo sapiens, UniProt Q9GZK7); test: as above
Target sequence in this assay (Q9GZK7 whole entry): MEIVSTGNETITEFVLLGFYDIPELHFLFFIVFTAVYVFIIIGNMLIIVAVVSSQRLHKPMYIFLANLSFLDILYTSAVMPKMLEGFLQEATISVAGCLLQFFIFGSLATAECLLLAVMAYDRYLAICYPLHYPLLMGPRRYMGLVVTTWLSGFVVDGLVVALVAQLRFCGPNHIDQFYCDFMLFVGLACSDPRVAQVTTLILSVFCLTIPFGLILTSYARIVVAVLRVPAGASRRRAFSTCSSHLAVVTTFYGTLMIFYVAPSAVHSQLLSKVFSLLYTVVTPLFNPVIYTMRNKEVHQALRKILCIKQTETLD
Method: as §1, §2

[11] = target: human class II OR identified in the library screening (Homo sapiens, UniProt Q9GZK7); test: as above; settings: read-out: Potency, EC50 changed C-term; OR11A1, modified C-terminus SEQ ID NO: 221 (SEQ ID NO: 702)
Target sequence in this assay (Q9GZK7 1-298): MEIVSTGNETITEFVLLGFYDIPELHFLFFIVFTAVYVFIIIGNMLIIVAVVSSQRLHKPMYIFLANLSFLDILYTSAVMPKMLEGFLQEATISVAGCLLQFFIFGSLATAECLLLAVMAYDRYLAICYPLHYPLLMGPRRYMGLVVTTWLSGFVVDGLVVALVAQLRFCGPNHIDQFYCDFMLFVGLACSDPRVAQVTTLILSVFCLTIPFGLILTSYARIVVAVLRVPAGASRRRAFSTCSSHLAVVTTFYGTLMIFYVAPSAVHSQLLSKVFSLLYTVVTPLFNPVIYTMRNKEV
Method: as §1, §2

[12] = target: human class II OR identified in the library screening (Homo sapiens, UniProt Q8NGG4)
Method: as §1, §2

[13] = system: human class II OR identified in the library screening
Method: as §1, §2

[14] = target: human class II OR identified in the library screening (Homo sapiens, UniProt Q8NGN4); test: Confirmatory dose-response analysis of library-hit OR with cognate ligand, wild-type vs C-terminal domain SEQ ID NO: 221 (Table 17); settings: OR10G9, wild-type sequence;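 also: Wild-type receptor sequences expressed from the pcDNA3.1(+) vector and compared with the C-terminally modified receptors in dose-response tests using each receptor's cognate ligand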
Method: as §1, §2

[15] = OR10K1, modified C-terminus SEQ ID NO: 221 vs wild-type
[16] = OR2L5, modified C-terminus SEQ ID NO: 221 vs wild-type
[17] = OR8H1, modified C-terminus SEQ ID NO: 221 vs wild-type
[18] = OR10G9, modified C-terminus SEQ ID NO: 221 (SEQ ID NO: 678)
[19] = OR10G9, modified C-terminus SEQ ID NO: 221 vs wild-type

Chain of human class II OR identified in the library screening (Homo sapiens, UniProt Q8NGN4) (Q8NGN4 whole entry, the tested form may be a part): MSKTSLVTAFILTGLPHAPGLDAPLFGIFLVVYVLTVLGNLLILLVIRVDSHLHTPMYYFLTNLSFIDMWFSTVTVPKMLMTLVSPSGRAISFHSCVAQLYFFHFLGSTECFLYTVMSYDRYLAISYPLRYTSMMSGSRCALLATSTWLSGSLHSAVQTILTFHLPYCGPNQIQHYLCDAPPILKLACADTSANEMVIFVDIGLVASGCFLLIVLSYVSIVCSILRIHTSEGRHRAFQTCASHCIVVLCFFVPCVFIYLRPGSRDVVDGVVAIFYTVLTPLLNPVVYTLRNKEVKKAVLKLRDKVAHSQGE
Chain of human class II OR identified in the library screening (Homo sapiens, UniProt Q8NGG4) (Q8NGG4 whole entry): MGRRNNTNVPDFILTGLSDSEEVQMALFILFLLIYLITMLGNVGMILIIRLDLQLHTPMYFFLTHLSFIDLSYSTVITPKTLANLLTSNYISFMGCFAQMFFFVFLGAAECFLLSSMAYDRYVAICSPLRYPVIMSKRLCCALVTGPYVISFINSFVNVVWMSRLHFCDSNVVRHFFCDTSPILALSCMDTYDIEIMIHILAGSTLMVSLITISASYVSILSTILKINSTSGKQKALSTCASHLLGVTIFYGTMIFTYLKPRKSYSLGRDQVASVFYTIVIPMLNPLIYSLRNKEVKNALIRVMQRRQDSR

- Detection threshold; concentration for 2-fold induction, wild-type [1]: 9.4 µM
- Detection threshold; concentration for 2-fold induction, wild-type [2]: no
- pEC50 [3]: 5.66
- pEC50 [5]: 5.15
SMILES: CC(C)CCc1ccc2c(c1)OCC(=O)CO2 [7-(3-Methylbutyl)-benzo[b][1,4]dioxepin-3-one]
- Fold improvement efficacy ([4]; OR10H1, modified C-terminus SEQ ID NO: 221 vs wild-type): 10.0 fold
- Potency, Fold-improvement ([4]; OR10K1, EC50 modified C-terminus SEQ ID NO: 221 vs wild-type): 3.1 fold
- Fold improvement efficacy [4, 15]: 12.4 fold
- Detection threshold; Fold improvement efficacy [4, 15]: 63.4 fold

- Detection threshold; concentration for 2-fold induction, wild-type [6]: no
- Detection threshold; concentration for 2-fold induction, wild-type [7]: 40.5 µM
- pEC50 [8]: 4.06
- pEC50 [9]: 5.32
SMILES: CCOC(=O)C1CCCCC1 [Ethyl cyclohexanecarboxylate]
- Fold improvement efficacy ([4]; OR2L3, modified C-terminus SEQ ID NO: 221 vs wild-type): 17.1 fold
- Potency, Fold-improvement ([4]; OR2L5, EC50 modified C-terminus SEQ ID NO: 221 vs wild-type): 24.1 fold
- Fold improvement efficacy [4, 16]: 2.6 fold
- Detection threshold; Fold improvement efficacy [4, 16]: 158.8 fold

SMILES: CC1CCCC2(C)CCCCC12O (stereo not drawn) [Geosmin]
- pEC50 [10]: 5.17
- pEC50 [11]: 5.66

- Detection threshold; concentration for 2-fold induction, wild-type [12]: 6.9 µM
- Detection threshold; concentration for 2-fold induction, changed C-term. [13]: 0.4 µM
- pEC50 ([4]; OR8H1, modified C-terminus SEQ ID NO: 221 (SEQ ID NO: 637)): 5.24
SMILES: N#CC(=C1CCCCC1)c1ccccc1 [Peonile]
- Potency, Fold-improvement ([4]; OR8H1, EC50 modified C-terminus SEQ ID NO: 221 vs wild-type): 2.95 fold
- Fold improvement efficacy [4, 17]: 4.2 fold
- Detection threshold; Fold improvement efficacy [4, 17]: 15.6 fold

SMILES: CCOc1cc(C)ccc1O [Ultravanil]
- Detection threshold; concentration for 2-fold induction, wild-type [14]: 14.6 µM
- Potency, Fold-improvement ([4]; OR10G9, EC50 modified C-terminus SEQ ID NO: 221 vs wild-type): 4.8 fold
- Detection threshold; concentration for 2-fold induction, changed C-term. [4, 18]: 1.7 µM
- Fold improvement efficacy [4, 19]: 3.4 fold
- Detection threshold; Fold improvement efficacy [4, 19]: 8.62 fold
- pEC50 [4, 18]: 4.72
